Earlier results, collected in patent US8609359B2, “Methods for determining the concentration of gamma-hydroxy butyric acid (GHB) in a sample” (Bühlmann Laboratories AG, priority 2009, dated 2013).

How the values were obtained:
GHB receptor = settings: for GHB-appropriate responding: animals
[1] = effects can resolve quite suddenly
GABAB receptor = GABAB receptor (Homo sapiens, UniProt Q9UBS5)
[2] = in 1 ml of water
[3] = when consumed with food

Chain of GABAB receptor (Q9UBS5 15-961 limits assumed): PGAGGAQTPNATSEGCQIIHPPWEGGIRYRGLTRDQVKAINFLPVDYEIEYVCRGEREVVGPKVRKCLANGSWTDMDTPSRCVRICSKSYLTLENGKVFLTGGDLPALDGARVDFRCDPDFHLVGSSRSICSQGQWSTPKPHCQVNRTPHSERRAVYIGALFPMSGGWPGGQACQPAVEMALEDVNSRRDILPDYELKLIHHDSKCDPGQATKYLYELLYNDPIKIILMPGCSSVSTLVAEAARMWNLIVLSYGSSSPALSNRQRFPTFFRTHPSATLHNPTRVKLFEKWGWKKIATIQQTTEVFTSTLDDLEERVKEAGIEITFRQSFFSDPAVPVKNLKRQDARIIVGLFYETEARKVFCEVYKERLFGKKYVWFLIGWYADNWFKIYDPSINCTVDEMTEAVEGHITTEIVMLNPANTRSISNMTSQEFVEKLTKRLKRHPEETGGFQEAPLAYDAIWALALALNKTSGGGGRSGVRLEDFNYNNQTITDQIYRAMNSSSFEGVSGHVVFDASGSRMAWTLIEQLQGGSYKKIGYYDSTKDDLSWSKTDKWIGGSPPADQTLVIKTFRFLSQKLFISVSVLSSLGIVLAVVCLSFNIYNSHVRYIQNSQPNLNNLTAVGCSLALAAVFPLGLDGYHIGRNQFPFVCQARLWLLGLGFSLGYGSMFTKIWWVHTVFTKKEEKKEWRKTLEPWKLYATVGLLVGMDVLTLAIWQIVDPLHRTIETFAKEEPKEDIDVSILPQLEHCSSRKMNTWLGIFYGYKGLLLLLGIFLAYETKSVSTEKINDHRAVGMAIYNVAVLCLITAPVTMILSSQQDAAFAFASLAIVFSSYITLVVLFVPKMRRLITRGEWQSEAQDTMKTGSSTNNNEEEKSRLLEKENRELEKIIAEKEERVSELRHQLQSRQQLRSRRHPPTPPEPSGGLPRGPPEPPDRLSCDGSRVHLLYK
Chain of GABAB receptor (O75899 42-941 partner): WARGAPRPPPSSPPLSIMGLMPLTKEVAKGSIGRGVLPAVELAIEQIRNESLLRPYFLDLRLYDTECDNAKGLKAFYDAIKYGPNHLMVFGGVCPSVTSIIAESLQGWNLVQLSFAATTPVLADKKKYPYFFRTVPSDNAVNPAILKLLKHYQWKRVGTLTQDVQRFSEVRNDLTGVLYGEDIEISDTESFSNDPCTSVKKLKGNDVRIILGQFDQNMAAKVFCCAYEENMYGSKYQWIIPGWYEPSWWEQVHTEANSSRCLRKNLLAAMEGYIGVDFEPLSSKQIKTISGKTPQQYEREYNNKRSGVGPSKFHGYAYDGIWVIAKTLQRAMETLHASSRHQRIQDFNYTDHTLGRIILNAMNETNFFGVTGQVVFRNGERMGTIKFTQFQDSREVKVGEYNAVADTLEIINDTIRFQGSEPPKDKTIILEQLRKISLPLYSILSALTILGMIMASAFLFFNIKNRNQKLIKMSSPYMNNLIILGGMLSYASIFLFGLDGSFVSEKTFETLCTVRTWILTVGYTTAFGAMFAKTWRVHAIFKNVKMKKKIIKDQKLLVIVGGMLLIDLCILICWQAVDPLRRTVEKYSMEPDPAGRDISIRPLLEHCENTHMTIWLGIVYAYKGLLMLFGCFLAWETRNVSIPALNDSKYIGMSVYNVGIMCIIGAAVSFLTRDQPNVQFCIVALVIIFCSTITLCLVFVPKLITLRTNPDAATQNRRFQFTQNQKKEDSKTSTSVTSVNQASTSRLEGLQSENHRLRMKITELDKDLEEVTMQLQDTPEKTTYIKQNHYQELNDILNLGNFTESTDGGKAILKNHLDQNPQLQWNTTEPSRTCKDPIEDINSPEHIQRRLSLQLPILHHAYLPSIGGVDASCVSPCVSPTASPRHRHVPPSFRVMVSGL

In the case of O=C(O)CCC(O)Cc1ccc(Cl)cc1 (stereo not shown) [4-(p-chlorobenzyl)-GHB], the convulsions in animals (GHB receptor) is given as “cause convulsions in animals” and the GHB-appropriate responding (GHB receptor) is given as “do not produce GHB-appropriate responding”.
For O=C(O)CCCO [GHB, 4-hydroxybutanoic acid], the “duration of the effects” value [1] is given as “about four” and the “affinity for GABAB receptor” value (GABAB receptor) is given as “relatively weak affinity”.
In the case of O=C([O-])CCCO.[Na+] [sodium GHB], the “amount of sodium GHB that can be dissolved” value [2] is listed as “More than 1 g” and the bioavailability [3] is listed as “considerably reduced”.
In the case of O=C(O)/C=C/CO [trans-4-hydroxycrotonic acid], the GHB-appropriate responding (GHB receptor) is given as “do not produce GHB-appropriate responding”.
